Measured values from US11865125B2, “APKC inhibitors and methods of treating a neurodegenerative disease or disorder” (UNIVERSITY OF SOUTH FLORIDA, priority 2016, dated 2024).
“Also recorded” adds a separate entry of the source.

Assays:
[1] = passage of the blood brain barrier; format: in vivo, mouse; conditions: intact mice, inferred from inhibition of brain PKC-λ/ι
[2] = test system: Akt substrates, GSK3β and mTOR; assay: phosphorylation of Akt substrates in LA1-5s neuroblastoma cells; format: cell-based, human; conditions: LA1-5s cells, 200 nM insulin, data not shown
Experimental: (§1) Relative bar values in panel a are mean±SEM of 6 determinations. Asterisks: *, P<0.05; **, P<0.01; ***, P<0.001 (ANOVA). Values in panel b are means of 2-4 determinations.
(§2) Western Analyses. As described, Western analyses were conducted with rabbit antisera or mouse monoclonal antibodies (mMab), using: anti-aPKC (Santa Cruz Biotechnologies, Santa Cruz, CA); anti-phospho-threonine-560/555-PKC-ζ/λ/ι (Invitrogen, Carlsbad, CA); anti-p-serine-256-FoxO1 and anti-FoxO1 (Abnova, Walnut, CA); anti-Akt (mMab), anti-phospho-serine-473-Akt, anti-phospho-serine-9-GSK3P anti-GSK313, anti-phospho-serine-253-FoxO3a, anti-FoxO3a, anti-phospho-serine-256-FoxO1, anti-phospho-serine-193-FoxO4; anti-FoxO1, anti-phospho-serine-2448-mTOR, anti-mTOR, anti-β-amyloid (anti-5-10 kDa-Aβ1-40/42) and anti-amyloid precursor protein (anti-120 kDa-APP) (Cell Signaling Technologies, Danvers, MA); and anti-phospho-serine-202-tau, anti-phospho-threonine-231-tau (Gene Tex, Irvine, CA). Samples from experimental groups were compared on the same blots, and routinely checked with loading controls. Note that: insulin-sensitive 70 kDa aPKC is largely PKC-ζ in mouse brain and orthologous PKC-ι (98% aa homology) in monkey and other primate brains; brain PKC-ζ exists largely as a 50 kDa moiety that, lacking a regulatory domain, is constitutively-active and unresponsive to insulin.

[3] = Het-MλKO mice, reported previously; cited from earlier work
[4] = serum insulin levels / hyperinsulinemia in insulin-resistant mice; format: in vivo, mouse; conditions: Het-MλKO mice
Source text: (§3) Mouse Studies. Brain samples were obtained from normal and insulin-resistant mice and monkeys used previously, and includes mice originally used in studies of insulin signaling and resistance in liver: (a) 4-6 month old C57Bl/6 mice used in studies of high-fat-feeding [USF Vivarium] [6]; 4-6 month-old male C57Bl/6 ob/ob and lean ob+ mice (Jackson Labs, Bar Harbor, Maine); and (c) 10-12 month-old C57Bl/6 Het-MλKO mice [USF Vivarium] [8]. […] Where indicated normal mice were given a single SC injection of saline or saline containing 1.5 mg/kg ICAPP to follow time-related alterations in brain signaling factors. Where indicated, mice were treated intraperitoneally (IP) with insulin (1 U/kg body weight) or vehicle 15-min before euthanization by administration of Xylazine/Ketamine, followed by whole body perfusion with phosphate-buffered saline and rapid removal of brain and other tissues.
(§4) Where indicated, mice were randomly treated with insulin (1 unit/kg/bw i.p.) 15 min before being euthanized by administration of xylazine/ketamine, followed by whole-body perfusion with PBS and rapid removal of brain and other tissues.

Aβ1-40/42 = Aβ1-40/42 levels in LA1-5s neuroblastoma cells; format: cell-based, human; conditions: LA1-5s cells
Experimental: as §1
(§5) Shown here are Mean±SEM (N=4) values relative to the mean initial basal or insulin-stimulated level of indicated immunoreactive protein/peptide. Asterisks: *, P<0.05; **, P<0.01; ***, P<0.001 (ANOVA).
as §2

[5] = test system: conventional PKCs, novel PKCs, AMP-dependent protein kinase and Akt; conditions: cited from earlier work
Akt = assay: brain Akt phosphorylation/activity in mice; format: in vivo, mouse
Source text: as §3
Tissue Preparations. As described, mouse brains were hemisected sagittally, and one-half was frozen in liquid N2, stored at −80° C., and samples thereof were homogenized in buffer containing 0.25M sucrose, 20 mM Tris/HCl (pH, 7.5), 2 mmol/l EGTA, 2 mM EDTA, 1 mM phenlysulfonoylfluoride (PMSF), 20 μg/ml leupeptin, 10 μg/ml aprotinin, 2 mM Na4P2O7, 2 mM Na3VO4, 2 mM NaF, and 1 μM microcystin, and then supplemented with 1% TritonX-100, 0.6% Nonidet and 150 mM NaCl.
as §2, §4

β-secretase (BACE1) = assay: β-secretase activity (BACE1) in LA1-5s neuroblastoma cells; format: cell-based, human; conditions: LA1-5s cells
Experimental: as §1, §5
β-Secretase Activity (BACE1; beta-site APP-cleaving enzyme-1). β-Secretase was measured was measured using a kit from Thermo-Fisher.

phospho-thr-231-tau = phospho-thr-231-tau levels in LA1-5s neuroblastoma cells; format: cell-based, human; conditions: LA1-5s cells
Experimental: as §5, §2

aPKC = biological target: T1, aPKC (Homo sapiens, UniProt P41743); assay: aPKC activity in LA1-5s neuroblastoma cells; format: cell-based; set-up: endogenous in cells; host or cells: LA1-5s human neuroblastoma cells
T1 sequence (P41743 2-596): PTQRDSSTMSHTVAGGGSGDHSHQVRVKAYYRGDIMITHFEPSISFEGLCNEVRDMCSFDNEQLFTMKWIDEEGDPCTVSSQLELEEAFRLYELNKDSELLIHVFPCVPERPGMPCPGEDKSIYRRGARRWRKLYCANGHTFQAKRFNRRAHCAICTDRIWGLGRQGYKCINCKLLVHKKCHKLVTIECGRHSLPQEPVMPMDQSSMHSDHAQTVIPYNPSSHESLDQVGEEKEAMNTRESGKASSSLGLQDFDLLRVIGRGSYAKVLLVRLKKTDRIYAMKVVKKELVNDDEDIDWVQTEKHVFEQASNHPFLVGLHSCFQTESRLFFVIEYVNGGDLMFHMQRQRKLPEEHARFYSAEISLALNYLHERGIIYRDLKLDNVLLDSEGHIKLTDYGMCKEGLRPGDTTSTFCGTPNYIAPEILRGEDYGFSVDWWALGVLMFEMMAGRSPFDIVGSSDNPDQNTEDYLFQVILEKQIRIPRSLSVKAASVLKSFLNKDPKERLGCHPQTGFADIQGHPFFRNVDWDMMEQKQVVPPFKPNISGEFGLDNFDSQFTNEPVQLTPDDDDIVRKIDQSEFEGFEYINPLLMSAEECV

For NC(=O)c1ncn([C@@H]2C[C@H](COP(=O)(O)O)[C@@H](O)[C@H]2O)c1N [ICAPP], the “passage of the blood brain barrier (BBB)” value [1] is listed as “can cross the BBB”, the “effect on insulin-stimulated phosphorylation of Akt substrates” value [2] is listed as “without altering” and the “serum insulin levels / hyperinsulinemia” value [3] is listed as “fully/sufficiently improved; also recorded: reduced serum insulin levels in Het-MλKO mice to normal”. For the same molecule, the hyperinsulinemia [4] was “hyperinsulinemia was corrected; also recorded: fully reversed”, the “effect on metformin-induced increase in Aβ1-40/42” value (Aβ1-40/42) was “dose-dependently inhibited” and the “effect on insulin-stimulated Aβ1-40/42 levels” value (Aβ1-40/42; 200 nM insulin) was “dose-dependent decreases”. For the same molecule, the “inhibition of conventional PKCs, novel PKCs, AMP-dependent protein kinase and Akt” value [5] was “Neither ICAPP [8] nor ACPD [6,7] inhibit”, the “resting/basal brain Akt activity” value (Akt; Het-MλKO mice, s.c. once daily for 8 days (ICAPP 0.4 mg/kg, ATM 60 mg/kg)) was “diminished; also recorded: reductions of resting/basal activities of brain Akt and aPKC, comparable to those seen with ATM treatment” and the “acute insulin activation of brain Akt” value (Akt; Het-MλKO mice, s.c. once daily for 8 days (ICAPP 0.4 mg/kg, ATM 60 mg/kg), insulin 1 U/kg i.p. 15 min) was “restored ability of insulin to acutely activate Akt; also recorded: insulin was fully able to fully activate Akt”. The “insulin-stimulated increases in brain Akt activity” value (Akt; normal mice, single s.c. dose of ICAPP 1.5 mg/kg, insulin 1 U/kg i.p. 15 min before killing) was “without altering; also recorded: without inhibiting insulin effects on Akt”, the “effect on metformin-induced increase in β-secretase activity” value (β-secretase (BACE1)) was “dose-dependently inhibited” and the “effect on insulin-stimulated β-secretase activity” value (β-secretase (BACE1); 200 nM insulin) was “dose-dependent decreases”. For the same molecule, the “effect on metformin-induced increase in phospho-thr-231-tau” value (phospho-thr-231-tau) was “dose-dependently inhibited”, the “effect on metformin-induced increase in aPKC activity” value (aPKC; LA1-5s cells) was “dose-dependently inhibited” and the IC50 (aPKC; LA1-5s human neuroblastoma cells, 200 nM insulin, read-out: IC50, inhibition of insulin-stimulated aPKC activity) was 1 to 10 nM.
